Measured values: patent US20260216294A1, “BETA 2-ADRENERGIC RECEPTOR AGONISTS FOR TREATMENT OR PREVENTION OF MUSCLE WASTING” (ATROGI AB, priority 2023, published 2026)

What was measured:
L6-myotubes [1] = experiment: Measurement of intracellular cAMP levels in differentiated L6-myotubes (Biological Example 3); format: cell-based; details: for Emax at 10 µM: 0.25 h
Protocol: (§1) Compounds described in publications referenced and incorporated herein were screened in accordance with the procedures outlined in Biological example 2 and Biological example 3.
Differentiated L6-myotubes were serum-starved overnight and stimulated with isoprenaline or the test compound with a final concentration of 1×10^−5 M, for 15 min in stimulation buffer (HBSS supplemented with 1% BSA, 5 mM HEPES and 1 mM IBMX, pH 7.4). The medium was aspirated and 100 μL of 95% EtOH was added to each well of the 24-well plate and cells were kept at −20° C. overnight. The EtOH was allowed to evaporate and 500 μL of lysis buffer (1% BSA, 5 mM HEPES and 0.3% Tween-20, pH 7.4) was added to each well. The plate was kept at −80° C. for 30 min and then at −20° C. until the day of detection when the samples were thawed. Intracellular cAMP levels were detected using an alpha screen cAMP kit (6760635D from Perkin Elmer).

L6-myotubes [2] = experiment: Glucose uptake in differentiated L6-myotubes (Biological Example 2); format: cell-based; details: for Emax at 10 µM: read-out: Biological example 2 (GU)
Protocol: as §1
Differentiated L6-myotubes were serum-starved overnight in medium containing 0.5% fatty-acid free BSA and stimulated with isoprenaline or the test compound, with a final concentration of 1×10^−5 M. After 1 h 40 min the cells were washed with warm glucose free medium or PBS twice and another portion of agonist was added to the glucose free medium. After 20 min the cells were exposed to 50 nM ^3H-2-deoxyglucose for 10 min before washed with ice cold glucose free medium or PBS three times and lysed with 0.2 M NaOH, 400 μL/well, for 1 h at 60° C. The cell lysate was mixed with 4 mL scintillation buffer (Emulsifier Safe, Perkin Elmer) and the radioactivity was detected in a […] (Tri-Carb 4810TR, Perkin Elmer).

[3] = intracellular cAMP in differentiated L6-myotubes, compound at 10 μM, activity relative to isoproterenol at 10 μM
[4] = glucose uptake in differentiated L6-myotubes, compound at 10 μM, activity relative to isoproterenol at 10 μM
[5] = intracellular cAMP, compound at 10 μM relative to isoproterenol at 10 μM
[6] = glucose uptake, compound at 10 μM relative to isoproterenol at 10 μM

SMILES: CC(C)(NC[C@H](O)c1cncc(F)c1)[C@H]1CC[C@H](OCc2ccccc2)CC1 [Compound 281, (R)-1-(5-fluoro-3-pyridyl)-2-{1-methyl-1-[(1r,4R)-4-(benzyloxy)cyclohexyl]ethylamino}-1-ethanol]
- Emax at 10 µM (L6-myotubes [1]; [3]): < 25%
- Emax at 10 µM (L6-myotubes [2]; [4]): 50 to 75%

SMILES: Oc1ccc(C(O)CNCCC2CCCCC2)cc1 (centres unmarked) [Compound 16, 2-(2-cyclohexylethylamino)-1-(p-hydroxyphenyl)-1-ethanol]
- Emax at 10 µM (L6-myotubes [1]; [5]): < 25%
- Emax at 10 µM (L6-myotubes [2]; [6]): 25 to 50%

SMILES: CS(=O)(=O)N(Cc1ccccc1)[C@H]1CC[C@H](C[C@@H]2CC[C@H]([C@@H](O)c3cccc(F)c3)N2)CC1 [Compound 503, (S)-[(2R,5S)-5-({(1r,4S)-4-[(benzyl)-N-mesylamino]cyclohexyl}methyl)-2-pyrrolidinyl](m-fluorophenyl)methanol]
- Emax at 10 µM (L6-myotubes [1]; [3]): < 25%
- Emax at 10 µM (L6-myotubes [2]; [4]): < 25%

SMILES: CC(C)(C[C@H]1CC[C@H](S(N)(=O)=O)CC1)NC[C@H](O)c1cccc(F)c1 [Compound 516, (1R,4r)-4-{2-[(R)-2-(m-fluorophenyl)-2-hydroxyethylamino]-2-methylpropyl} cyclohexanesulfonamide]
- Emax at 10 µM (L6-myotubes [1]; [3]): < 25%
- Emax at 10 µM (L6-myotubes [2]; [4]): > 75%

SMILES: CC(C)(C[C@H]1CC[C@H](NC(=O)C2CC2)CC1)NC[C@H](O)c1cccc(F)c1 [Compound 432]
- Emax at 10 µM (L6-myotubes [1]; [3]): > 75%
- Emax at 10 µM (L6-myotubes [2]; [4]): > 75%

SMILES: CS(=O)(=O)Nc1ccc(CC23CCC([C@H](O)c4cccc(F)c4)(CC2)N3)cc1 [Compound 475, (R)-(m-fluorophenyl)(4-{[p-(mesylamino)phenyl]methyl}-7-azabicyclo[[2.2.1]]hept-1-yl)methanol]
- Emax at 10 µM (L6-myotubes [1]; [3]): < 25%
- Emax at 10 µM (L6-myotubes [2]; [4]): 50 to 75%

SMILES: CC1(C)C[C@@H]([C@@H](O)c2cccc(Cl)c2)N1 [Compound 231]
- Emax at 10 µM (L6-myotubes [1]; [3]): < 25%
- Emax at 10 µM (L6-myotubes [2]; [4]): 25 to 50%

SMILES: CO[C@H]1CC[C@@H](CCC(C)(C)NC[C@H](O)c2cncc(F)c2)CC1 [Compound 266]
- Emax at 10 µM (L6-myotubes [1]; [3]): < 25%
- Emax at 10 µM (L6-myotubes [2]; [4]): > 75%

SMILES: CC1(C)CC[C@@H]([C@@H](O)c2cccc(O)c2)N1 [Compound 143]
- Emax at 10 µM (L6-myotubes [1]; [5]): < 25%
- Emax at 10 µM (L6-myotubes [2]; [6]): < 25%

SMILES: CC(=O)N[C@H]1CC[C@H](CC(C)(C)NC[C@H](O)c2cccc(C(F)(F)F)n2)CC1 [Compound 460]
- Emax at 10 µM (L6-myotubes [1]; [3]): < 25%
- Emax at 10 µM (L6-myotubes [2]; [4]): 50 to 75%

SMILES: CC(C)(C[C@H]1CC[C@@H](NC(=O)OC(C)(C)C)CC1)NC[C@H](O)c1cncc(F)c1 [Compound 469, (1S,4s)-4-{2-[(R)-2-(5-fluoro-3-pyridyl)-2-hydroxyethylamino]-2-methylpropyl}cyclohexy-2-methyl-2-propanecarbamate]
- Biological example 3 (CAMP) (L6-myotubes [1]; [3]): − (if it less than 25% it is denoted with −)
- Biological example 2 (GU) (L6-myotubes [2]; [4]): +++ (If a compound at 10 μM shows activity of more than 75% of that of isoproterenol at 10 μM, the activity is denoted with +++)

SMILES: O[C@@H](CNC[C@H]1CC[C@H](O)CC1)c1cncc(F)c1 [Compound 274, (R)-1-(5-fluoro-3-pyridyl)-2-({[(1r,4R)-4-hydroxycyclohexyl]methyl}amino)-1-ethanol]
- Emax at 10 µM (L6-myotubes [1]; [3]): < 25%
- Emax at 10 µM (L6-myotubes [2]; [4]): < 25%

SMILES: CC(C)(CC[C@H]1CC[C@H](O)CC1)NC[C@H](O)c1cccc(F)c1 [Compound 290, (R)-2-{1,1-dimethyl-3-[(1r,4S)-4-hydroxycyclohexyl]propylamino}-1-(m-fluorophenyl)-1-ethanol]
- Emax at 10 µM (L6-myotubes [1]; [3]): < 25%
- Emax at 10 µM (L6-myotubes [2]; [4]): 25 to 50%

SMILES: CC1(C)CCC[C@H]([C@H](O)c2ccccc2Cl)N1 [Compound 162, (R)-[(R)-6,6-dimethyl-2-piperidyl](o-chlorophenyl)methanol]
- Emax at 10 µM (L6-myotubes [1]; [5]): < 25%
- Emax at 10 µM (L6-myotubes [2]; [6]): 25 to 50%

SMILES: CC1(C)CC[C@H]([C@@H](O)c2ccccc2Cl)N1 [Compound 151]
- Emax at 10 µM (L6-myotubes [1]; [5]): < 25%
- Emax at 10 µM (L6-myotubes [2]; [6]): < 25%

SMILES: O[C@H](c1cccc(F)c1)C12CCC(CCc3ccc(Cl)cc3)(CC1)N2 [Compound 528, (R)-{4-[2-(p-chlorophenyl)ethyl]-7-azabicyclo[[2.2.1]]hept-1-yl}(m-fluorophenyl)methanol]
- Emax at 10 µM (L6-myotubes [1]; [3]): < 25%
- Emax at 10 µM (L6-myotubes [2]; [4]): < 25%

SMILES: COC(=O)[C@H]1CC[C@@H](CCC(C)(C)NC[C@H](O)c2cncc(F)c2)CC1 [Compound 349, methyl (1S,4s)-4-{3-[(R)-2-(5-fluoro-3-pyridyl)-2-hydroxyethylamino]-3-methylbutyl} cyclohexanecarboxylate]
- Emax at 10 µM (L6-myotubes [1]; [3]): 25 to 50%
- Emax at 10 µM (L6-myotubes [2]; [4]): > 75%

SMILES: CC1(NC[C@H](O)c2cccc(F)c2)CC1 [Compound 82, (R)-1-(m-fluorophenyl)-2-(1-methylcyclopropylamino)-1-ethanol]
- Emax at 10 µM (L6-myotubes [1]; [5]): < 25%
- Emax at 10 µM (L6-myotubes [2]; [6]): > 75%

SMILES: COCC12CCC([C@H](O)c3cccc(F)c3)(CC1)N2 [Compound 330, (R)-(m-fluorophenyl){4-(methoxymethyl)-7-azabicyclo[[2.2.1]]hept-1-yl}methanol]
- Emax at 10 µM (L6-myotubes [1]; [3]): < 25%
- Emax at 10 µM (L6-myotubes [2]; [4]): > 75%

SMILES: CC(=O)N[C@H]1CC[C@H](CC(C)(C)NC[C@H](O)c2cccc(C#N)n2)CC1 [Compound 425]
- Emax at 10 µM (L6-myotubes [1]; [3]): 25 to 50%
- Emax at 10 µM (L6-myotubes [2]; [4]): > 75%

SMILES: CC(=O)N[C@H]1CC[C@@H](CC(C)(C)NC[C@H](O)c2cncc(F)c2)CC1 [Compound 467]
- Emax at 10 µM (L6-myotubes [1]; [3]): < 25%
- Emax at 10 µM (L6-myotubes [2]; [4]): > 75%

SMILES: CC(=O)N[C@H]1CC[C@H](CNC[C@H](O)c2cccc(F)c2)CC1 [Compound 308]
- Emax at 10 µM (L6-myotubes [1]; [3]): < 25%
- Emax at 10 µM (L6-myotubes [2]; [4]): 50 to 75%

SMILES: O[C@@H](c1cncc(F)c1)C12CCC(C/C=C/c3ccccc3)(CC1)N2 [Compound 529, (S)-{4-[(E)-3-phenyl-2-propenyl]-7-azabicyclo[[2.2.1]]hept-1-yl}(5-fluoro-3-pyridyl)methanol]
- Emax at 10 µM (L6-myotubes [1]; [3]): < 25%
- Emax at 10 µM (L6-myotubes [2]; [4]): 25 to 50%

SMILES: CO[C@H]1CC[C@H](CNC[C@H](O)c2cncc(F)c2)CC1 [Compound 229, (R)-1-(5-fluoro-3-pyridyl)-2-({[(1r,4R)-4-methoxycyclohexyl]methyl}amino)-1-ethanol]
- Emax at 10 µM (L6-myotubes [1]; [3]): < 25%
- Emax at 10 µM (L6-myotubes [2]; [4]): 50 to 75%

SMILES: CC(C)(C[C@H]1CC[C@H](NC(=O)OC(C)(C)C)CC1)NC[C@H](O)c1cccc(C(F)(F)F)n1 [Compound 459]
- Emax at 10 µM (L6-myotubes [1]; [3]): < 25%
- Emax at 10 µM (L6-myotubes [2]; [4]): > 75%

SMILES: CCC[C@H]1CCC[C@H]([C@@H](O)c2cccc(Cl)c2)N1 [Compound 128]
- Emax at 10 µM (L6-myotubes [1]; [5]): < 25%
- Emax at 10 µM (L6-myotubes [2]; [6]): 25 to 50%

SMILES: CCCCCCNCC(O)c1ccc(O)cc1 (centres unmarked) [Compound 17, 2-(hexylamino)-1-(p-hydroxyphenyl)-1-ethanol]
- Emax at 10 µM (L6-myotubes [1]; [5]): < 25%
- Emax at 10 µM (L6-myotubes [2]; [6]): 25 to 50%

SMILES: C[C@H]1CC[C@@H]([C@@H](O)c2cccc(O)c2)N1 (racemic) [Compound 41, Racemic mixture of m-{(R)-[(2R,5R)-5-methyl-2-pyrrolidinyl] hydroxymethyl}phenol and m-{(S)-[(2S,5S)-5-methyl-2-pyrrolidinyl] hydroxymethyl}phenol]
- Emax at 10 µM (L6-myotubes [1]; [5]): < 25%
- Emax at 10 µM (L6-myotubes [2]; [6]): > 75%

SMILES: O[C@H](c1cccc(F)c1)[C@H]1CCC2(CC2)N1 [Compound 170, (R)-{(R)-4-aza-5-spiro[2.4]heptyl}(m-fluorophenyl)methanol]
- Emax at 10 µM (L6-myotubes [1]; [5]): < 25%
- Emax at 10 µM (L6-myotubes [2]; [6]): 50 to 75%

SMILES: CO[C@H]1CC[C@H](C(C)(C)NC[C@H](O)c2cncc(F)c2)CC1 [Compound 240, (R)-1-(5-fluoro-3-pyridyl)-2-{1-methyl-1-[(1r,4R)-4-methoxycyclohexyl]ethylamino}-1-ethanol]
- Emax at 10 µM (L6-myotubes [1]; [3]): < 25%
- Emax at 10 µM (L6-myotubes [2]; [4]): > 75%

SMILES: CC1(C)CCC[C@H]([C@H](O)c2cccc(O)c2)N1 [Compound 104, (R)-[(R)-6,6-dimethyl-2-piperidyl](m-hydroxyphenyl)methanol]
- Emax at 10 µM (L6-myotubes [1]; [5]): < 25%
- Emax at 10 µM (L6-myotubes [2]; [6]): 25 to 50%

SMILES: CC(C)(C[C@H]1CC[C@@H](NC(=O)C2CC2)CC1)NC[C@H](O)c1cccc(F)c1 [Compound 447]
- Emax at 10 µM (L6-myotubes [1]; [3]): < 25%
- Emax at 10 µM (L6-myotubes [2]; [4]): > 75%

SMILES: CO[C@H]1CC[C@@H](CCNC[C@H](O)c2cncc(F)c2)CC1 [Compound 238, (R)-1-(5-fluoro-3-pyridyl)-2-{2-[(1s,4S)-4-methoxycyclohexyl]ethylamino}-1-ethanol]
- Emax at 10 µM (L6-myotubes [1]; [3]): < 25%
- Emax at 10 µM (L6-myotubes [2]; [4]): > 75%

SMILES: CC(C)(C[C@H]1CC[C@H](NS(C)(=O)=O)CC1)NC[C@H](O)c1cccc(F)c1 [Compound 382]
- Emax at 10 µM (L6-myotubes [1]; [3]): 25 to 50%
- Emax at 10 µM (L6-myotubes [2]; [4]): > 75%

SMILES: CCCCNC[C@H](O)c1ccc(F)cc1O [Compound 81, (R)-2-(butylamino)-1-(4-fluoro-2-hydroxyphenyl)-1-ethanol]
- Emax at 10 µM (L6-myotubes [1]; [5]): < 25%
- Emax at 10 µM (L6-myotubes [2]; [6]): 50 to 75%

SMILES: CS(=O)(=O)N(Cc1ccccc1)c1cccc(CC23CCC([C@@H](O)c4cccc(F)c4)(CC2)N3)c1 [Compound 512]
- Emax at 10 µM (L6-myotubes [1]; [3]): < 25%
- Emax at 10 µM (L6-myotubes [2]; [4]): < 25%

SMILES: CC(C)(C)NC[C@H](O)c1cccc(N)c1F [Compound 91, (R)-1-(3-amino-2-fluorophenyl)-2-(tert-butylamino)-1-ethanol]
- Emax at 10 µM (L6-myotubes [1]; [5]): 25 to 50%
- Emax at 10 µM (L6-myotubes [2]; [6]): > 75%
